Measured values reported in patent US20190338251A1, “Skeletal Muscle Precursor Cells and Production Method for Skeletal Muscle Cells” (Takeda Pharmaceutical Company Limited, priority 2016, published 2019).

Key:
Type in all cases: cell-based, human
[1] = system: 253G1 cells; experiment: Study on reagent to be added: fluorescent immunostaining of induced myotube and skeletal muscle cells; conditions: for use of one reagent instead of the reference reagent (CHIR or SB) for induction: 0.5 μM BIO or 10 μM 5B216763 instead of CHIR; for use of one reagent instead of the reference reagent (CHIR or SB) for induction / use of one reagent instead of the reference reagent (SB or FSK) for induction: 1 μM A83-01 instead of SB; for use of combined replacement reagents for induction: several reference reagents (CHIR, SB, DM, FSK) replaced at once; for use of two reagents instead of SB and DM for induction / use of one reagent instead of the reference reagent (SB or FSK) for induction: fibronectin-coated vessel (section 5-2); for use of two reagents instead of SB and DM for induction: 1 μM A83-01 and 0.1 μM LDN193189; for use of one reagent instead of the reference reagent (SB or FSK) for induction: 50 μM dbcAMP instead of FSK
Experimental: (§1) According to Reference Example 1, 253G1 cells were plated over a Matrigel-coated culture vessel. Two days thereafter, the E8 medium was replaced with B-27 medium supplemented with 5 μM CHIR and 1% AA to start differentiation (the starting day of differentiation was defined as day 0 of differentiation).
On day 2 of differentiation, the medium was replaced with B-27 medium supplemented with 1% AA, 10 μM SB and 0.5 μM DM. On day 4 of differentiation, the medium was further replaced with B-27 medium supplemented with 1% AA and 10 μM FSK. The culture was continued until day 7 of differentiation.
On day 7 of differentiation, the medium was replaced with DMEM (high glucose) medium supplemented with 10 μM FSK, 5% StemSure Serum Replacement, 1% AA and 1% ITS-G. The culture was continued with the medium replaced every 2 to 3 days.
The cells (skeletal muscle precursor cells) on week 3 of differentiation were cryopreserved in the same way as the method described in Example 3. The cryopreserved cells were thawed, plated, and cultured for 2 days in the same way as the method described in Example 3. Then, the medium was replaced with DMEM (high glucose) medium supplemented with 10 μg/mL FGF2, 10 μM FSK, 1% AA, 5% StemSure Serum Replacement and 1% ITS-G. The culture was continued for 2 weeks with the medium replaced every 2 to 3 days.
The cells thus cultured for 2 weeks were fluorescently immunostained using an antibody recognizing myosin heavy chains (R&D Systems, Inc., clone No.: MF20), an antibody recognizing desmin (Abcam plc.) and Hoechst 33342 for nuclear staining (Dojindo Laboratories). As a result, multinuclear myotube cells costained with both the antibodies were confirmed (FIG. 5, left diagram).
On week 2 of culture, the medium was replaced with growth factor- and FSK-free DMEM (low glucose) medium supplemented with 1% AA, 5% StemSure Serum Replacement and 1% ITS-G, and the culture was continued with the medium replaced. On week 4 of culture, the cells were fluorescently immunostained using an antibody recognizing α-actinin (Sigma-Aldrich Co. LLC), an antibody recognizing dystrophin (Abcam plc.) and Hoechst 33342. As a result, multinuclear skeletal muscle cells were stained (FIG. 5, right diagram).
Various changes in conditions were studied with reference to the experiment described above. The frozen cells on weeks 2 and 4 of culture were similarly fluorescently immunostained and evaluated.
Cells were obtained in the same way as the method described in the preceding section “5-1” except that a culture vessel coated with fibronectin (Sigma-Aldrich Co. LLC) instead of Matrigel was used. After thawing, myotube cells (FIG. 6, left diagram) and skeletal muscle cells (FIG. 6, right diagram) were confirmed on weeks 2 and 4, respectively, of culture.

[2] = system: 253G1 cells; experiment: Pan-mesodermal marker gene expression (real-time PCR) on day 2 of differentiation; conditions: CHIR 1 to 6 μM, ratio to undifferentiated iPS cells
Experimental: as §1, with “with 1 to 6” for “with 5”
(§2) On day 2 of differentiation, change in the expression of pan-mesodermal marker genes BRACHYURY and TBX6 was examined. The change in gene expression was analyzed by the following procedures: total RNA was prepared using RNeasy 96 Kit or RNeasy Mini Kit (Qiagen N.V.), and cDNA was then synthesized from the total RNA using reverse transcriptase (PrimeScript RT reagent kit, Takara Bio Inc.). The obtained cDNA was subjected to real-time PCR using a Taqman probe (Applied Biosystems, Inc.). A sample prepared from the 253G1 cells before the start of differentiation was used as a reference sample. The gene expression levels of BRACHYURY and TBX6 were calculated by the comparative Ct method.

[3] = system: 253G1 cells; experiment: Somitic mesoderm marker gene expression on day 7 of differentiation; conditions: 2 to 4 μM CHIR days 0 to 2, then SB (and DM) days 2 to 4, then FSK days 4 to 7
Experimental: as §1, with “with 1 to 6” for “with 5”
as §2
On day 2 of differentiation, the medium was replaced with B-27 medium supplemented with 1% AA and 10 μM SB (and 0.3 to 1 μM DM). On day 4 of differentiation, the medium was further replaced with B-27 medium supplemented with 1% AA and 10 μM FSK. […]
On day 7 of differentiation, the expression levels of somitic mesoderm marker genes PAX3 and PAX7 were measured. […]

Compound: Cc1cccc(-c2nn(C(=S)Nc3ccccc3)cc2-c2ccnc3ccccc23)n1 [A83-01, 3-(6-methyl-2-pyridinyl)-N-phenyl-4-(4-quinolinyl)-1H-pyrazole-1-carbothioamide]
- use of one reagent instead of the reference reagent (CHIR or SB) for induction ([1]; Matrigel (section 5-1)): it was possible
- use of combined replacement reagents for induction ([1]; Matrigel (section 5-1)): it was possible
- use of two reagents instead of SB and DM for induction [1]: it was possible
- use of one reagent instead of the reference reagent (SB or FSK) for induction [1]: it was possible

Compound: Cc1c[nH]c(-c2cnc(NCCNc3ccc(C#N)cn3)nc2-c2ccc(Cl)cc2Cl)n1 [CHIR, 6-[[2-[[4-(2,4-dichlorophenyl)-5-(4-methyl-1H-imidazol-2-yl)-2-pyrimidinyl]amino]ethyl]amino]nicotinonitrile]
- BRACHYURY and TBX6 expression [2]: increase in a CHIR concentration-dependent manner
- expression of somitic mesoderm marker genes PAX3 and PAX7 [3]: high expression

Compound: Cn1cc(C2=C(c3ccc(Cl)cc3Cl)C(=O)NC2=O)c2ccccc21 [5B216763, 3-(2,4-dichlorophenyl)-4-(1-methyl-1H-indol-3-yl)-1H-pyrrole-2,5-dione]
- use of one reagent instead of the reference reagent (CHIR or SB) for induction ([1]; Matrigel (section 5-1)): it was possible
- use of combined replacement reagents for induction ([1]; Matrigel (section 5-1)): it was possible

Compound: Cl.c1ccc2c(-c3cnn4cc(-c5ccc(N6CCNCC6)cc5)cnc34)ccnc2c1 [LDN193189, 4-[6-(4-piperazin-1-yl-phenyl)-pyrazolo[1,5-α]pyrimidin-3-yl]-quinoline hydrochloride]
- use of combined replacement reagents for induction ([1]; Matrigel (section 5-1)): it was possible
- use of two reagents instead of SB and DM for induction [1]: it was possible

Compound: 6-bromoindirubin-3-oxime [BIO]
- use of one reagent instead of the reference reagent (CHIR or SB) for induction ([1]; Matrigel (section 5-1)): it was possible
- use of combined replacement reagents for induction ([1]; Matrigel (section 5-1)): it was possible

Compound: CCCC(=O)Nc1ncnc2c1ncn2[C@@H]1O[C@@H]2COP(=O)(O)O[C@H]2[C@H]1OC(=O)CCC [dbcAMP, dibutyryl cAMP]
- induction of differentiation into skeletal muscle precursor cells ([1]; Matrigel (section 5-1), 50 μM dbcAMP instead of FSK from day 4 of differentiation): it was possible to induce differentiation into skeletal muscle precursor cells
- use of combined replacement reagents for induction ([1]; Matrigel (section 5-1)): it was possible
- use of one reagent instead of the reference reagent (SB or FSK) for induction [1]: it was possible
